Source: patent US10259818B2, “Bicyclic azaheterocyclobenzylamines as PI3K inhibitors” (Incyte Corporation, priority 2012, dated 2019)
pIC50: −log10 of the molar value. Structures can show the parent of a compound that is named as a salt.

system: SUDHL-6 cell line (diffuse large B cell lymphoma); test: SUDHL-6 cell proliferation assay (Example B3); format: cell-based; conditions: Homo sapiens, SU-DHL-6, 72 h, SUDHL-6 cells, 3 days, Cell Titer-GLO
Procedure: Example B3: SUDHL-6 Cell Proliferation Assay
SUDHL-6 cell line (diffuse large B cell lymphoma) was purchased from ATCC (Manassas, Va.) and maintained in the culture medium recommended (RPMI and 10% FBS). To measure the anti-proliferation activity of the compounds through ATP quantitation, the SUDHL-6 cells was plated with the culture medium (5000 cells/well/per 200 μl) into 96-well polystyrene clear black tissue culture plate (Greiner-bio-one through VWR, NJ) in the presence or absence of a concentration range of test compounds. After 3 days, Cell Titer-GLO Luminescent (Promega, Madison, Wis.) cell culture agent was added to each well for 10 minutes at room temperature to stabilize the luminescent signal. This determines the number of viable cells in culture based on quantitation of the ATP present, which signals the presence of metabolically active cells. Luminescence was measured with the TopCount 384 (Packard Bioscience through Perkin Elmer, Boston, Mass.). […] IC50 data for the Examples is presented in Table 4 determined by the assay of Example B3.

CCNC(=O)N1CC(N2Cc3c(C#N)c(Cl)cc(C(C)n4nc(C)c5c(N)ncnc54)c3OC(C)C2)C1 (single isomer, unassigned) [Example 97, 3-[9-[1-(4-amino-3-methyl-1H-pyrazolo[3,4-d]pyrimidin-1-yl)ethyl]-7-chloro-6-cyano-2-methyl-2,3-dihydro-1,4-benzoxazepin-4(5H)-yl]-N-ethylazetidine-1-carboxamide] was tested. Which pIC50 did it give?
Its pIC50 is at least 6.30.

With CCOC(=O)N1CC(N2Cc3c(C#N)c(Cl)cc(C(C)n4nc(C)c5c(N)ncnc54)c3OC(C)C2)C1 (single isomer, unassigned) [Example 99, ethyl 3-[9-[1-(4-amino-3-methyl-1H-pyrazolo[3,4-d]pyrimidin-1-yl)ethyl]-7-chloro-6-cyano-2-methyl-2,3-dihydro-1,4-benzoxazepin-4(5H)-yl]azetidine-1-carboxylate] as the molecule, how does the pIC50 read?
Its pIC50 is at least 6.30.

With Cc1nn(C(C)c2cc(Cl)c(C#N)c3c2OC(C)CN(C2CN(C(=O)NC(C)C)C2)C3)c2ncnc(N)c12 (single isomer, unassigned) [Example 101, 3-[9-[1-(4-amino-3-methyl-1H-pyrazolo[3,4-d]pyrimidin-1-yl)ethyl]-7-chloro-6-cyano-2-methyl-2,3-dihydro-1,4-benzoxazepin-4(5H)-yl]-N-isopropylazetidine-1-carboxamide] as the molecule, how does the pIC50 read?
Its pIC50 is at least 6.30.

Cc1nn(C(C)c2cc(Cl)c(C#N)c3c2OC(C)CN(C2CN(CCO)C2)C3)c2ncnc(N)c12 (single isomer, unassigned) [Example 104, 9-[1-(4-amino-3-methyl-1H-pyrazolo[3,4-d]pyrimidin-1-yl)ethyl]-7-chloro-4-[1-(2-hydroxyethyl)azetidin-3-yl]-2-methyl-2,3,4,5-tetrahydro-1,4-benzoxazepine-6-carbonitrile] was tested. Which pIC50 did it give?
The pIC50 was at least 6.30.

With Cc1nn(C(C)c2cc(Cl)c(C#N)c3c2OC(C)CN(C2CN(S(=O)(=O)N(C)C)C2)C3)c2ncnc(N)c12 (single isomer, unassigned) [Example 105, 3-[9-[1-(4-amino-3-methyl-1H-pyrazolo[3,4-d]pyrimidin-1-yl)ethyl]-7-chloro-6-cyano-2-methyl-2,3-dihydro-1,4-benzoxazepin-4(5H)-yl]-N,N-dimethylazetidine-1-sulfonamide] as the molecule, how does the pIC50 read?
The pIC50 was at least 6.30.

Cc1nn(C(C)c2cc(Cl)c(C#N)c3c2OC(C)CN(CC#N)C3)c2ncnc(N)c12 (single isomer, unassigned) [Example 108, 9-[1-(4-amino-3-methyl-1H-pyrazolo[3,4-d]pyrimidin-1-yl)ethyl]-7-chloro-4-(cyanomethyl)-2-methyl-2,3,4,5-tetrahydro-1,4-benzoxazepine-6-carbonitrile] was tested. Which pIC50 did it give?
The pIC50 was at least 6.30.

How did the pIC50 turn out when Cc1nn(C(C)c2cc(Cl)c(C#N)c3c2OC(C)CN(CC(N)=O)C3)c2ncnc(N)c12 (single isomer, unassigned) [Example 110, 2-[9-[1-(4-amino-3-methyl-1H-pyrazolo[3,4-d]pyrimidin-1-yl)ethyl]-7-chloro-6-cyano-2-methyl-2,3-dihydro-1,4-benzoxazepin-4(5H)-yl]acetamide] was run?
The pIC50 was at least 6.30.

With COCCN1Cc2c(C#N)c(Cl)cc(C(C)n3nc(C)c4c(N)ncnc43)c2OC(C)C1 (single isomer, unassigned) [Example 112, 9-[1-(4-amino-3-methyl-1H-pyrazolo[3,4-d]pyrimidin-1-yl)ethyl]-7-chloro-4-(2-methoxyethyl)-2-methyl-2,3,4,5-tetrahydro-1,4-benzoxazepine-6-carbonitrile] as the molecule, how does the pIC50 read?
The pIC50 was at least 6.30.

With CNC(=O)C1CC(N2Cc3c(C#N)c(Cl)cc(C(C)n4nc(C)c5c(N)ncnc54)c3OC(C)C2)C1 (single isomer, unassigned) [Example 114, 3-[9-[1-(4-amino-3-methyl-1H-pyrazolo[3,4-d]pyrimidin-1-yl)ethyl]-7-chloro-6-cyano-2-methyl-2,3-dihydro-1,4-benzoxazepin-4(5H)-yl]-N-methylcyclobutane-carboxamide] as the molecule, how does the pIC50 read?
Its pIC50 is at least 6.30.

How did the pIC50 turn out when Cc1c(Cl)cc(C(C)n2nc(C)c3c(N)ncnc32)c2c1CN(C1CN(C(=O)OC(C)(C)C)C1)CCO2 (centres unmarked) [Example 3, tert-Butyl 3-[9-[1-(4-amino-3-methyl-1H-pyrazolo[3,4-d]pyrimidin-1-yl)ethyl]-7-chloro-6-methyl-2,3-dihydro-1,4-benzoxazepin-4(5H)-yl]azetidine-1-carboxylate] was run?
The pIC50 was at least 6.30.

With CC(=O)N1CC(N2CCOc3c(C(C)n4nc(C)c5c(N)ncnc54)cc(Cl)c(C)c3C2)C1 (centres unmarked) [Example 4, 1-{1-[4-(1-Acetylazetidin-3-yl)-7-chloro-6-methyl-2,3,4,5-tetrahydro-1,4-benzoxazepin-9-yl]ethyl}-3-methyl-1H-pyrazolo[3,4-d]pyrimidin-4-amine] as the molecule, how does the pIC50 read?
The pIC50 was at least 6.30.

With Cc1c(Cl)cc(C(C)n2nc(C)c3c(N)ncnc32)c2c1CN(C1CCC1)CCO2 (centres unmarked) [Example 5, 1-[1-(7-Chloro-4-cyclobutyl-6-methyl-2,3,4,5-tetrahydro-1,4-benzoxazepin-9-yl)ethyl]-3-methyl-1H-pyrazolo[3,4-d]pyrimidin-4-amine bis(trifluoroacetate)] as the molecule, how does the pIC50 read?
The pIC50 was at least 6.30.

Cc1c(Cl)cc(C(C)n2nc(C)c3c(N)ncnc32)c2c1CN(C1CCCC1)CCO2 (centres unmarked) [Example 6, 1-[1-(7-Chloro-4-cyclopentyl-6-methyl-2,3,4,5-tetrahydro-1,4-benzoxazepin-9-yl)ethyl]-3-methyl-1H-pyrazolo[3,4-d]pyrimidin-4-amine bis(trifluoroacetate)] was tested. Which pIC50 did it give?
The pIC50 was at least 6.30.

Cc1c(Cl)cc(C(C)n2nc(C)c3c(N)ncnc32)c2c1CN(C(C)C)CCO2 (centres unmarked) [Example 10, 1-[1-(7-Chloro-4-isopropyl-6-methyl-2,3,4,5-tetrahydro-1,4-benzoxazepin-9-yl)ethyl]-3-methyl-1H-pyrazolo[3,4-d]pyrimidin-4-amine bis(trifluoroacetate)] was tested. Which pIC50 did it give?
Its pIC50 is at least 6.30.

How did the pIC50 turn out when Cc1c(Cl)cc(C(C)n2nc(C)c3c(N)ncnc32)c2c1CN(C(=O)CC#N)CCO2 (centres unmarked) [Example 12, 3-[9-[1-(4-Amino-3-methyl-1H-pyrazolo[3,4-d]pyrimidin-1-yl)ethyl]-7-chloro-6-methyl-2,3-dihydro-1,4-benzoxazepin-4(5H)-yl]-3-oxopropanenitrile trifluoroacetate] was run?
Its pIC50 is at least 6.30.

With Cc1c(Cl)cc(C(C)n2nc(C)c3c(N)ncnc32)c2c1CN(S(C)(=O)=O)CCO2 (centres unmarked) [Example 13, 1-{1-[7-Chloro-6-methyl-4-(methylsulfonyl)-2,3,4,5-tetrahydro-1,4-benzoxazepin-9-yl]ethyl}-3-methyl-1H-pyrazolo[3,4-d]pyrimidin-4-amine Trifluoroacetate] as the molecule, how does the pIC50 read?
The pIC50 was at least 6.30.

With Cc1c(Cl)cc(C(C)n2nc(C)c3c(N)ncnc32)c2c1CN(S(=O)(=O)C1CC1)CCO2 (centres unmarked) [Example 18, 1-{1-[7-Chloro-4-(cyclopropylsulfonyl)-6-methyl-2,3,4,5-tetrahydro-1,4-benzoxazepin-9-yl]ethyl}-3-methyl-1H-pyrazolo[3,4-d]pyrimidin-4-amine Trifluoroacetate] as the molecule, how does the pIC50 read?
Its pIC50 is 6.00 to 6.30.

How did the pIC50 turn out when CCC(=O)N1CCOc2c(C(C)n3nc(C)c4c(N)ncnc43)cc(Cl)c(C)c2C1 (centres unmarked) [Example 20, 1-[1-(7-Chloro-6-methyl-4-propionyl-2,3,4,5-tetrahydro-1,4-benzoxazepin-9-yl)ethyl]-3-methyl-1H-pyrazolo[3,4-d]pyrimidin-4-amine Trifluoroacetate] was run?
Its pIC50 is at least 6.30.

same assay, conditions: SUDHL-6 cells, 3 days, Cell Titer-GLO

CCNC(=O)N1CC(N2Cc3c(C#N)c(Cl)cc(C(C)n4nc(C)c5c(N)ncnc54)c3OC(C)C2)C1 (single isomer, unassigned) [Example 98, 3-[9-[1-(4-amino-3-methyl-1H-pyrazolo[3,4-d]pyrimidin-1-yl)ethyl]-7-chloro-6-cyano-2-methyl-2,3-dihydro-1,4-benzoxazepin-4(5H)-yl]-N-ethylazetidine-1-carboxamide] was tested. Which pIC50 did it give?
The pIC50 was at least 6.30.

How did the pIC50 turn out when CCOC(=O)N1CC(N2Cc3c(C#N)c(Cl)cc(C(C)n4nc(C)c5c(N)ncnc54)c3OC(C)C2)C1 (single isomer, unassigned) [Example 100, ethyl 3-[9-[1-(4-amino-3-methyl-1H-pyrazolo[3,4-d]pyrimidin-1-yl)ethyl]-7-chloro-6-cyano-2-methyl-2,3-dihydro-1,4-benzoxazepin-4(5H)-yl]azetidine-1-carboxylate] was run?
Its pIC50 is at least 6.30.

With Cc1nn(C(C)c2cc(Cl)c(C#N)c3c2OC(C)CN(C2CN(C(=O)NC(C)C)C2)C3)c2ncnc(N)c12 (single isomer, unassigned) [Example 102, 3-[9-[1-(4-amino-3-methyl-1H-pyrazolo[3,4-d]pyrimidin-1-yl)ethyl]-7-chloro-6-cyano-2-methyl-2,3-dihydro-1,4-benzoxazepin-4(5H)-yl]-N-isopropylazetidine-1-carboxamide] as the molecule, how does the pIC50 read?
The pIC50 was at least 6.30.

Cc1nn(C(C)c2cc(Cl)c(C#N)c3c2OC(C)CN(C2CN(S(=O)(=O)N(C)C)C2)C3)c2ncnc(N)c12 (single isomer, unassigned) [Example 106, 3-[9-[1-(4-amino-3-methyl-1H-pyrazolo[3,4-d]pyrimidin-1-yl)ethyl]-7-chloro-6-cyano-2-methyl-2,3-dihydro-1,4-benzoxazepin-4(5H)-yl]-N,N-dimethylazetidine-1-sulfonamide] was tested. Which pIC50 did it give?
Its pIC50 is at least 6.30.

CNC(=O)C1CC(N2Cc3c(C#N)c(Cl)cc(C(C)n4nc(C)c5c(N)ncnc54)c3OC(C)C2)C1 (single isomer, unassigned) [Example 115, 3-[9-[1-(4-amino-3-methyl-1H-pyrazolo[3,4-d]pyrimidin-1-yl)ethyl]-7-chloro-6-cyano-2-methyl-2,3-dihydro-1,4-benzoxazepin-4(5H)-yl]-N-methylcyclobutane-carboxamide] was tested. Which pIC50 did it give?
The pIC50 was at least 6.30.
